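Grown in 96-well plates, cells were treated for 48 hours with each compound at five concentrations. Insufficient inhibition: endpoint recorded as highest concentration tested. At the GI50, growth is halved. TGI: total growth inhibition.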
Tested on: HL-60(TB) leukemia
Experiment: growth of human tumour cells (NCI), 48 h

| Structure (SMILES) | GI50 [nM] | TGI [µM] |
| --- | --- | --- |
| Cc1c2c(nn1-c1ccc(S(=O)(=O)/N=C3\SCC(=O)N3C(=O)c3ccccc3)cc1)-c1ccccc1CC2 | 65500 | > 100 |
| CN(C)C(=S)/N=c1\ss/c(=N\C(=S)N(C)C)n1-c1ccc2c(c1)OCO2 |  | > 100 |
| COC(=O)C(=O)C(C(=O)C(=O)Nc1ccc(C)cc1C)c1nc2ccccc2[nH]c1=O (configuration not stated) |  | > 100 |
| O=C(O)C(Sc1ccc(Cl)cc1)Sc1ccc(Cl)cc1 |  | > 100 |
| CC[C@H](C)[C@H](NC(=O)[C@H]1CCCCN1C)C(=O)N(C)[C@H](CCc1nc(C(=O)N[C@@H](Cc2ccccc2)C[C@H](C)C(=O)OC)cs1)C(C)C | 67.7 | 0.242 |
| Nc1c(-c2ccc(Br)cc2)[n+]([O-])c2ccccc2[n+]1[O-] |  | > 100 |
| C#CC[C@]12CC(=O)CC[C@H]1CC(=O)C2 |  | > 100 |
| CNC=O.[O]=[Ge].[O]=[Ge].[O]=[Ge].[O]=[Ge][OH].[O]=[Ge][OH] |  | > 100 |
| N#CCCN(c1ccc(/C=C2\N=C(c3ccc(Cl)cc3)OC2=O)cc1)S(=O)(=O)c1ccccc1 |  | > 100 |
| COC(=O)C1=C(c2ccc3c(c2)OCO3)O[C@H](c2ccc3c(c2)OCO3)[C@H]1COC(C)=O |  | > 100 |
| CC(C)=[CH][Sb]([Br])([CH]=C(C)C)([CH]=C(C)C)[CH]=C(C)C | 1880 | 24.3 |
| COc1cc([N+](=O)[O-])ccc1NC(=O)C(F)(F)F |  | > 100 |
| COc1cc(-c2c(C#N)c(N)n3c(nc4ccccc43)c2C#N)cc(Br)c1OC | > 100000 | > 100 |
| N#CCCN(CCC#N)c1ccc(/C=C2\N=C(CN3C(=O)c4ccccc4C3=O)OC2=O)cc1 |  | > 100 |
| CSc1nc(NC2OC(COC(C)=O)C(OC(C)=O)C(OC(C)=O)C2OC(C)=O)c2c(OC(C)=O)c(C)c(=O)oc2n1 (configuration not stated) |  | > 100 |
| COc1ccc(C(=O)O)c(Cc2cccc3ccccc23)c1 |  | > 100 |
| CC#CC(=O)Nc1ccccc1CC(c1c[nH]c2ccccc12)c1c[nH]c2ccccc12 |  | 32.1 |
| CN1C(NC(=O)c2ccc(Cl)nc2)=NS(=O)(=O)c2cc(Cl)ccc21 | > 100000 | > 100 |
| C[C@]12CC[C@@H]3c4ccc(Oc5nc(N6CC6)nc(N6CC6)n5)cc4CC[C@H]3[C@@H]1CCC2=O | 529 | 3.26 |
| N#Cc1cnsc1 |  | > 100 |
| CCOC(=O)NC(=O)c1cn(CCCOC(=O)NCCCCCCNC(=O)OCCCn2c(=O)c(C(=O)NC(=O)OCC)cn(C)c2=O)c(=O)n(C)c1=O |  | > 100 |
| CC(C)=CC(=O)N1CCN(C(=O)C=C(C)C)CC1 |  | > 100 |
| CCCCC/C=C/C/C=C/CCCCCCCC1=NC(C)(C)CN1C(C)C | 1480 | 3.43 |
| CCc1cccc(C)c1NC(C)=O |  | > 100 |
| O=C(CC(=O)N1N=C(c2ccccc2)C(N=Nc2ccc(Cl)cc2)C1=O)Nc1ccccc1Cl (configuration not stated) |  | > 100 |

Tested on: SK-MEL-28 melanoma
Experiment: growth of human tumour cells (NCI), 48 h

| Structure (SMILES) | GI50 [µM] | TGI [µM] |
| --- | --- | --- |
| CC(C)(C)OC(=O)N(CCCN(CCn1c2c(c3ccccc3c1=O)C(=O)c1ccccc1-2)C(=O)OC(C)(C)C)CCn1c2c(c3ccccc3c1=O)C(=O)c1ccccc1-2 | > 50 | > 50 |
| CCCCCCCCCCCCCCCCOP(=O)(O)Oc1ccc(/C=C\c2ccc(OP(=O)(O)OCCCCCCCCCCCCCCCC)cc2)cc1 |  | > 100 |
| O=c1[nH]c(=O)n(C2CC(O)C(CS)O2)cc1F (configuration not stated) |  | > 100 |
| CNC1C(=O)C(C)C(O)(C(CC(C)C(O)/C=C/C=C/CNC(=O)C(C)(C)C(O)\C(C)=C/C=C\C=C\Cc2cnc(C)o2)OC)C12C(=O)OC2COC (configuration not stated) (tested in a mixture with another compound) |  | > 100 |
| CCN(CC)C(=O)C/C(C)=N/NC(=O)c1ccncc1 |  | > 100 |
| Cc1c2c(nn1-c1ccc(S(=O)(=O)/N=C3\SCC(=O)N3C(=O)c3ccccc3)cc1)-c1ccccc1CC2 | 52.5 | > 100 |
| CN(C)C(=S)/N=c1\ss/c(=N\C(=S)N(C)C)n1-c1ccc2c(c1)OCO2 |  | > 100 |
| COC(=O)C(=O)C(C(=O)C(=O)Nc1ccc(C)cc1C)c1nc2ccccc2[nH]c1=O (configuration not stated) |  | > 100 |
| O=C(O)C(Sc1ccc(Cl)cc1)Sc1ccc(Cl)cc1 |  | > 100 |
| CC[C@H](C)[C@H](NC(=O)[C@H]1CCCCN1C)C(=O)N(C)[C@H](CCc1nc(C(=O)N[C@@H](Cc2ccccc2)C[C@H](C)C(=O)OC)cs1)C(C)C | 2.06 | > 25 |
| Nc1c(-c2ccc(Br)cc2)[n+]([O-])c2ccccc2[n+]1[O-] |  | > 100 |
| C#CC[C@]12CC(=O)CC[C@H]1CC(=O)C2 |  | > 100 |
| CNC=O.[O]=[Ge].[O]=[Ge].[O]=[Ge].[O]=[Ge][OH].[O]=[Ge][OH] |  | > 100 |
| N#CCCN(c1ccc(/C=C2\N=C(c3ccc(Cl)cc3)OC2=O)cc1)S(=O)(=O)c1ccccc1 |  | > 100 |
| COc1ccc(C2CC(=O)c3c(OC)cc(OC)cc3O2)cc1 (configuration not stated) | > 100 | > 100 |
| COC(=O)C1=C(c2ccc3c(c2)OCO3)O[C@H](c2ccc3c(c2)OCO3)[C@H]1COC(C)=O |  | > 100 |

— PubChem BioAssay (NCI)
